# Tests used:
# [1] = tested on: GST-RANKL-administered 7-week-old female C57BL/6 mice; experiment: Drug evaluation with bisphosphonate (risedronate) in GST-RANKL mice; assay type: in vivo, mouse; conditions: for femur bone density decrease vs PBS group: RANKL alone
# Procedure: Risedronate was separately administered via a subcutaneous route to groups of 7-week-old female C57BL/6 mice at doses of 3, 10, and 30 μg/kg every 24 hours from the day before GST-RANKL administration to the end of the experimentation. The femur and serum were collected from each mouse 1.5 hours after the 3rd administration of GST-RANKL. Measurement of TRAP-5b, calcium (Ca), and alkaline phosphatase (ALP) was carried out. Each femur was subjected to bone density measurement and image analysis with the use of pQCT.
# female C57BL/6N mice = experiment: Producing OVX mice in a short period of time (GST-RANKL plus ovariectomy); assay type: in vivo, mouse
# Procedure: 7-week-old female C57BL/6N mice were reared for 25 days. Then, GST-RANKL was intraperitoneally administered twice thereto at 1 mg/kg every 24 hours. Ovariectomy was carried out 24 hours after the 2nd administration. Further, the femur, tibia, and serum were collected from each mouse 24 hours after ovariectomy. The obtained samples were compared with the samples obtained from a group that was reared for 4 weeks after ovariectomy. In addition, PBS was administered to control groups for comparison with GST-RANKL administration groups. The PBS administration groups were subjected to sham operation (Sham) for comparison with the groups subjected to ovariectomy.
# Regarding bone metabolism markers, TRAP-5b, calcium (Ca), and alkaline phosphatase (ALP) in the serum were measured. Each femur was subjected to bone density measurement with pQCT and image analysis with micro CT. After the initiation of rearing, the date of implementation of OVX or sham operation was expressed as “day X.”
# [2] = tested on: 7-week-old female C57BL/6N mice; experiment: Evaluation of a bone mass increase with PTH (GST-RANKL, ovariectomy); assay type: in vivo, mouse; conditions: for femur bone density decrease vs PBS+Sham: GST-RANKL+Sham
# Procedure: GST-RANKL was administered twice to groups of 7-week-old female C57BL/6N mice at 1 mg/kg every 24 hours. Ovariectomy was performed 24 hours after the 2nd administration. In addition, parathyroid hormone (PTH) was subcutaneously administered thereto at 160 μg/kg from 24 hours after the ovariectomy for 10 consecutive days. Further, a group obtained by PBS administration and sham operation (Sham) was designated as a control group for comparison. The serum markers and the femur bone density were measured.
# [3] = tested on: 7-week-old female C57BL/6N mice; experiment: Single-dose administration of GST-RANKL; assay type: in vivo, mouse; conditions: for femur bone density decrease vs control: single dose
# Procedure: The bone resorption markers and the osteogenesis markers in the serum were measured 12, 24, and 48 hours thereafter. Blood sampling was carried out before and immediately after GST-RANKL administration and 2, 4, 8, 12, 24, 48, and 72 hours after administration, followed by measurement of the serum human RANKL concentration by ELISA. In addition, 24 and 48 hours after administration, the femur bone density was measured with pQCT.
# [4] = tested on: 8-week-old female C57BL/6N mice; experiment: Administration of GST-RANKL to mouse calvaria; assay type: in vivo; conditions: 3 days
# Procedure: GST-RANKL was administered to the calvaria of groups of 8-week-old female C57BL/6N mice for 3 days. The femur was collected from each mouse on day 5 day after the initiation of experimentation. The femur bone density was evaluated with pQCT. Experimentation was conducted with the use of the following three experimental groups: the experimental group 1 subjected to administration of GST-RANKL at 0.5 mg/kg twice daily; the experimental group 2 subjected to administration of GST-RANKL at 1 mg/kg once daily; and the PBS group serving as a control group for comparison and being subjected to PBS administration. Cancellous bone density measurement was carried out at points 0.6 mm, 0.8 mm, and 1.0 mm from the distal growth plate on the proximal side of the collected femur with pQCT.
# [5] = tested on: GST-RANKL-administered 7-week-old female C57BL/6N mice; experiment: Evaluation of a bone mass increase with low-dose PTH in GST-RANKL mice; assay type: in vivo, mouse; conditions: GST-RANKL 1 mg/kg i.p. 2 times
# Procedure: GST-RANKL was intraperitoneally administered 2 times to groups of 7-week-old female C57BL/6N mice at 1 mg/kg every 24 hours. PTH was subcutaneously administered thereto at 40 or 80 μg/kg from 24 hours after the 2nd administration every 24 hours for 10 consecutive days. In addition, PBS was administered to a group serving as the control group for the GST-RANKL and PTH administration groups for comparison. The serum and femur were collected from each mouse 24 hours after the end of administration for 10 days.
# The serum collected from each mouse was subjected to measurement of serum bone resorption markers (Ca and TRAP-5b) and an osteogenesis marker (ALP). Each femur was subjected to measurement of the total bone density, the cortical bone density, the cortical bone thickness, the cortical bone mineral content, and the cortical bone density in the diaphysis with pQCT at points 0.6, 0.8, and 1.0 mm […] the distal growth plate on the proximal side. In addition, image analysis was carried out with micro CT.
# [6] = tested on: 12-week-old male and female C57BL/6N mice; experiment: GST-RANKL administration to 12-week-old mice; assay type: in vivo, mouse
# Procedure: GST-RANKL was intraperitoneally administered 3 times to 12-week-old male and female C57BL/6N mice at 1 mg/kg every 24 hours. The serum and femur were collected from each mouse 1.5 hours after the 3rd administration. The serum collected from each mouse was subjected to measurement of serum bone resorption markers (Ca and TRAP-5b) and an osteogenesis marker (ALP). Each femur was subjected to bone density measurement by dual energy X-ray absorptiometry (DEXA) and image analysis with micro CT.
# mice = experiment: Double-dose administration of GST-RANKL at 0.5, 1 and 2 mg/kg; assay type: in vivo, mouse; conditions: 2 mg/kg compared with 0.5 mg/kg and 1 mg/kg
# [7] = 12-week-old male, no significant difference
substance,measurement,setting,value
"GST-RANKL: fused protein of Glutathione S-transferase with human RANKL residues 140-317, expressed in Escherichia coli, 47.0 kDa",serum Ca concentration,[1]; GST-RANKL 3 times,did not obviously vary
same,"serum TRAP-5b concentration, fold as high",[1]; RANKL administration,approximately 2 fold
same,femur bone density decrease vs PBS group,[1]; 0.6 mm,27%
same,femur bone density decrease vs PBS group,[1]; 0.8 mm,35%
same,femur bone density decrease vs PBS group,[1]; 1.0 mm,35%
same,serum ALP concentration increase vs PBS+Sham (day 27) group,female C57BL/6N mice; GST-RANKL administration OVX (day 27) group,approximately 40%
same,femur bone density decrease vs PBS+Sham (day 27),"female C57BL/6N mice; GST-RANKL+OVX (day 27), 0.6 mm",approximately 4%
same,femur bone density decrease vs PBS+Sham (day 27),"female C57BL/6N mice; GST-RANKL+OVX (day 27), 0.8 mm",approximately 13%
same,femur bone density decrease vs PBS+Sham (day 27),"female C57BL/6N mice; GST-RANKL+OVX (day 27), 1.0 mm",approximately 15%
same,femur bone density decrease vs PBS+Sham (day 27),"female C57BL/6N mice; GST-RANKL+Sham (day 27), 0.6 mm",approximately 7%
same,femur bone density decrease vs PBS+Sham (day 27),"female C57BL/6N mice; GST-RANKL+Sham (day 27), 0.8 mm",approximately 14%
same,femur bone density decrease vs PBS+Sham (day 27),"female C57BL/6N mice; GST-RANKL+Sham (day 27), 1.0 mm",approximately 16%
same,"serum TRAP-5b concentration, fold as high as PBS+Sham (day 27) group","female C57BL/6N mice; every GST-RANKL administration group, 1 mg/kg i.p. twice, no significant difference",approximately 1.8 fold
same,femur bone density vs PBS+Sham,[2]; GST-RANKL+OVX group,No bone density decrease was observed
same,femur bone density decrease vs PBS+Sham,[2]; 0.6 mm,approximately 17%
same,femur bone density decrease vs PBS+Sham,[2]; 0.8 mm,~15%
same,femur bone density decrease vs PBS+Sham,[2]; 1.0 mm,~18%
same,serum Ca concentration,[2]; every GST-RANKL administration group,no changes
same,serum ALP concentration decrease,"[2]; every GST-RANKL administration group, 1 mg/kg twice",approximately 24%
same,serum ALP concentration decrease,[3]; single dose 1 mg/kg,approximately 30%
same,serum Ca concentration,[3]; single dose 1 mg/kg i.p.,no changes
same,serum human RANKL concentration,"[3]; single dose 1 mg/kg i.p., 24 hours later",undetectable
same,time of peak serum human RANKL concentration after administration,"[3]; single dose 1 mg/kg i.p., ELISA",4 h
same,"serum TRAP-5b concentration, fold as high as control","[3]; single dose 1 mg/kg, 12 hours after administration",approximately 1.7 fold
same,femur bone density decrease vs control,"[3]; 24 hours, 0.6 mm",approximately 4%
same,femur bone density decrease vs control,"[3]; 24 hours, 0.8 mm",approximately 9%
same,femur bone density decrease vs control,"[3]; 24 hours, 1.0 mm",approximately 12%
same,femur bone density decrease vs control,"[3]; 48 hours, 0.6 mm",approximately 5%
same,femur bone density decrease vs control,"[3]; 48 hours, 0.8 mm",approximately 9%
same,femur bone density decrease vs control,"[3]; 48 hours, 1.0 mm",approximately 15%
same,femur cancellous bone density vs PBS group,"[4]; experimental group 1: 0.5 mg/kg twice daily to the calvarium, at the measurement points",bone density decrease was observed
same,femur cancellous bone density vs PBS group,"[4]; experimental group 2: 1 mg/kg once daily to the calvarium, at 0.8 mm and 1.0 mm",bone density decrease was observed
same,"cortical bone density in the diaphysis, decrease vs PBS control",[5],3%
same,total bone density decrease (DEXA) vs control,[6]; 12-week-old female,6%
same,serum ALP concentration vs PBS group,"[6]; 12-week-old female, no significant difference",tended to increase
same,serum TRAP-5b concentration vs PBS group,"[6]; 12-week-old female, p<0.01",significantly increased
same,serum Ca concentration vs PBS group,"[6]; 12-week-old female, p<0.05",significantly increased
same,total bone density decrease (DEXA) vs control,[6]; 12-week-old male,8%
same,serum TRAP-5b concentration vs PBS group,"[6]; 12-week-old male, 1 mg/kg i.p. 3 times, p<0.05",significantly increased
same,serum ALP concentration vs PBS group,[6]; [7],tended to increase
same,serum Ca concentration vs PBS group,[6]; [7],tended to increase
same,bone mass decreasing effects,mice,promoted
